In PubChem BioAssay AID2060619 (Molecular Pharmacology Branch, DTP, NCI, 2025):
Several values for one entry are separate records, joined by “and”; a condition that tells them apart may be missing. Equal entries are not always repeated.

Test system: 323965-272-R-J2-PDC complex spheroid viability
Assay: Anticancer human tumor 323965-272-R-J2-PDC patient-derived pancreatic carcinoma cell line growth inhibition [CLK]
Conditions: for viability, T/C: stronger effect = lower value
In short: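 Patient-derived tumor cells grown as complex spheroids with HUVEC endothelial cells and mesenchymal stem cells, treated with drug combinations. Concentrations descend in half-log steps from near clinical Cmax, or from 10 microM if Cmax unknown.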

[1] = curve of first compound, second compound 0.0316 µM
[2] = curve of first compound, second compound 0.1 µM
[3] = curve of first compound, second compound 0.316 µM
[4] = curve of first compound, second compound 1 µM
[5] = curve of first compound, second compound 3.16 µM
[6] = curve of first compound, second compound 10 µM
[7] = second compound 0.0316 µM, first compound 0.0316 µM
[8] = second compound 0.0316 µM, first compound 0.1 µM
[9] = second compound 0.0316 µM, first compound 0.316 µM
[10] = second compound 0.0316 µM, first compound 1 µM
[11] = second compound 0.1 µM, first compound 0.0316 µM
[12] = second compound 0.1 µM, first compound 0.1 µM
[13] = second compound 0.1 µM, first compound 0.316 µM
[14] = second compound 0.1 µM, first compound 1 µM
[15] = second compound 0.316 µM, first compound 0.0316 µM
[16] = second compound 0.316 µM, first compound 0.1 µM
[17] = second compound 0.316 µM, first compound 0.316 µM
[18] = second compound 0.316 µM, first compound 1 µM
[19] = second compound 1 µM, first compound 0.0316 µM
[20] = second compound 1 µM, first compound 0.1 µM
[21] = second compound 1 µM, first compound 0.316 µM
[22] = second compound 1 µM, first compound 1 µM
[23] = second compound 3.16 µM, first compound 0.0316 µM
[24] = second compound 3.16 µM, first compound 0.1 µM
[25] = second compound 3.16 µM, first compound 0.316 µM
[26] = second compound 3.16 µM, first compound 1 µM
[27] = second compound 10 µM, first compound 0.0316 µM
[28] = second compound 10 µM, first compound 0.1 µM
[29] = second compound 10 µM, first compound 0.316 µM
[30] = second compound 10 µM, first compound 1 µM
[31] = second compound 0.0316 µM, first compound 3.16 µM
[32] = second compound 0.0316 µM, first compound 10 µM
[33] = second compound 0.1 µM, first compound 3.16 µM
[34] = second compound 0.1 µM, first compound 10 µM
[35] = second compound 0.316 µM, first compound 3.16 µM
[36] = second compound 0.316 µM, first compound 10 µM
[37] = second compound 1 µM, first compound 3.16 µM
[38] = second compound 1 µM, first compound 10 µM
[39] = second compound 3.16 µM, first compound 3.16 µM
[40] = second compound 3.16 µM, first compound 10 µM
[41] = second compound 10 µM, first compound 3.16 µM
[42] = second compound 10 µM, first compound 10 µM
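Note: spheroids exposed to agents for seven days before readout.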
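Throughout, for viability, T/C: percent of DMSO vehicle control wells so 100% = untreated growth.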

COc1c(OCCCN2CCOCC2)ccc2c3n(c(=NC(=O)c4cnc(N)nc4)nc12)CCN3 + CNC(=O)c1ccc(Nc2nc(OC3CCCC3)c3c(-c4ccc5nc(C)oc5c4)c[nH]c3n2)c(OC)c1
IC50 [1]: 0.0907 µM | IC50 [2]: 0.0622 µM | IC50 [3]: 0.0163 µM | IC50 [4]: < 0.00316 µM | IC50 [5]: < 0.00316 µM | IC50 [6]: < 0.00316 µM | viability, T/C (second compound 0.0316 µM, first compound 0.00316 µM): 107% | viability, T/C (second compound 0.0316 µM, first compound 0.01 µM): 82% | viability, T/C [7]: 66.8% | viability, T/C [8]: 48.4% | viability, T/C [9]: 34.1% | viability, T/C [10]: 22.2% | viability, T/C (second compound 0.1 µM, first compound 0.00316 µM): 89.8% | viability, T/C (second compound 0.1 µM, first compound 0.01 µM): 84.6% | viability, T/C [11]: 58.8% | viability, T/C [12]: 42% | viability, T/C [13]: 31.2% | viability, T/C [14]: 21.1% | viability, T/C (second compound 0.316 µM, first compound 0.00316 µM): 64.5% | viability, T/C (second compound 0.316 µM, first compound 0.01 µM): 56.7% | viability, T/C [15]: 42.4% | viability, T/C [16]: 31.7% | viability, T/C [17]: 27.7% | viability, T/C [18]: 16.4% | viability, T/C (second compound 1 µM, first compound 0.00316 µM): 45.5% | viability, T/C (second compound 1 µM, first compound 0.01 µM): 38.8% | viability, T/C [19]: 31.8% | viability, T/C [20]: 24.5% | viability, T/C [21]: 21.4% | viability, T/C [22]: 15.2% | viability, T/C (second compound 3.16 µM, first compound 0.00316 µM): 37.5% | viability, T/C (second compound 3.16 µM, first compound 0.01 µM): 28.3% | viability, T/C [23]: 23.3% | viability, T/C [24]: 19.4% | viability, T/C [25]: 15.8% | viability, T/C [26]: 13.7% | viability, T/C (second compound 10 µM, first compound 0.00316 µM): 44.8% | viability, T/C (second compound 10 µM, first compound 0.01 µM): 32.7% | viability, T/C [27]: 26.4% | viability, T/C [28]: 19.8% | viability, T/C [29]: 17.1% | viability, T/C [30]: 13.5%

CC1(C)CCC(CN2CCN(c3ccc(C(=O)NS(=O)(=O)c4ccc(NCC5CCOCC5)c([N+](=O)[O-])c4)c(Oc4cnc5[nH]ccc5c4)c3)CC2)=C(c2ccc(Cl)cc2)C1
viability, T/C (compound 0.0316 µM): 97.7% and 104% | viability, T/C (compound 0.1 µM): 103% and 96.6% | viability, T/C (compound 0.316 µM): 103% and 100% | viability, T/C (compound 1 µM): 95.6% and 102% | viability, T/C (compound 3.16 µM): 93.1% and 89.5% | viability, T/C (compound 10 µM): 6.41% and 8.48% | IC50 (curve of compound): 5.61 µM and 5.54 µM

O=C(c1cc(Cc2n[nH]c(=O)c3ccccc23)ccc1F)N1CCN(C(=O)C2CC2)CC1 + CNC(=O)c1ccc(Nc2nc(OC3CCCC3)c3c(-c4ccc5nc(C)oc5c4)c[nH]c3n2)c(OC)c1
IC50 [1]: > 10 µM | IC50 [2]: > 10 µM | IC50 [3]: > 10 µM | IC50 [4]: > 10 µM | IC50 [5]: < 0.0316 µM | IC50 [6]: < 0.0316 µM | viability, T/C [7]: 129% | viability, T/C [8]: 115% | viability, T/C [9]: 107% | viability, T/C [10]: 105% | viability, T/C [31]: 117% | viability, T/C [32]: 92% | viability, T/C [11]: 101% | viability, T/C [12]: 93.4% | viability, T/C [13]: 94.4% | viability, T/C [14]: 95.4% | viability, T/C [33]: 88.6% | viability, T/C [34]: 82.2% | viability, T/C [15]: 64.3% | viability, T/C [16]: 64.4% | viability, T/C [17]: 57.9% | viability, T/C [18]: 61.8% | viability, T/C [35]: 73.2% | viability, T/C [36]: 63.1% | viability, T/C [19]: 55.4% | viability, T/C [20]: 47.4% | viability, T/C [21]: 51.5% | viability, T/C [22]: 53.4% | viability, T/C [37]: 51.3% | viability, T/C [38]: 52.5% | viability, T/C [23]: 44% | viability, T/C [24]: 52.6% | viability, T/C [25]: 46.8% | viability, T/C [26]: 48.3% | viability, T/C [39]: 40% | viability, T/C [40]: 48.8% | viability, T/C [27]: 44.3% | viability, T/C [28]: 44.7% | viability, T/C [29]: 44.5% | viability, T/C [30]: 43.8% | viability, T/C [41]: 46.7% | viability, T/C [42]: 53.4%

CN1CCN(c2cc(C(=O)Nc3cc4cc(-c5cnn(C)c5)ccc4cn3)ccn2)CC1
viability, T/C (compound 0.0316 µM): 98.9% [middle of 12 runs] | viability, T/C (compound 0.1 µM): 70% [middle of 12 runs] | viability, T/C (compound 0.316 µM): 28.1% [middle of 12 runs] | viability, T/C (compound 1 µM): 4.53% [middle of 12 runs] | viability, T/C (compound 3.16 µM): 4.75% [middle of 12 runs] | viability, T/C (compound 10 µM): 4.22% [middle of 11 runs] | IC50 (compound alone, run of 08/14/2023): 174 nM [middle of 10 runs]

C=C(F)C(=O)N1CCN(c2nc(OCC3CCCN3C)nc3c2CCN(c2cccc4cccc(Cl)c24)C3)CC1CC#N (stereo not given) + CN1CCN(c2cc(C(=O)Nc3cc4cc(-c5cnn(C)c5)ccc4cn3)ccn2)CC1
IC50 [1]: > 10 µM | IC50 [2]: 0.0316 µM | IC50 [3]: < 0.0316 µM | IC50 [4]: < 0.0316 µM | IC50 [5]: < 0.0316 µM | IC50 [6]: < 0.0316 µM | viability, T/C [7]: 59% | viability, T/C [8]: 56.5% | viability, T/C [9]: 48.5% | viability, T/C [10]: 74.6% | viability, T/C [31]: 84.4% | viability, T/C [32]: 29.1% | viability, T/C [11]: 45.1% | viability, T/C [12]: 44.3% | viability, T/C [13]: 38% | viability, T/C [14]: 44.3% | viability, T/C [33]: 58.5% | viability, T/C [34]: 25.3% | viability, T/C [15]: 15.6% | viability, T/C [16]: 14.8% | viability, T/C [17]: 14.6% | viability, T/C [18]: 15.5% | viability, T/C [35]: 13.2% | viability, T/C [36]: 5.86% | viability, T/C [19]: 2.38% | viability, T/C [20]: 2.52% | viability, T/C [21]: 2.56% | viability, T/C [22]: 2.45% | viability, T/C [37]: 1.97% | viability, T/C [38]: 0.73% | viability, T/C [23]: 2.89% | viability, T/C [24]: 2.94% | viability, T/C [25]: 2.9% | viability, T/C [26]: 2.86% | viability, T/C [39]: 4.1% | viability, T/C [40]: 0.62% | viability, T/C [27]: 3.59% | viability, T/C [28]: 3.43% | viability, T/C [29]: 2.46% | viability, T/C [30]: 2.58% | viability, T/C [41]: 3.56% | viability, T/C [42]: 0.3%
